Measurements published in BindingDB's records for doi:10.1016/j.ejmech.2019.05.027 (Central University of Punjab, 2019).
Residues, ends and D or L forms follow the SMILES beside them.

Legend:
[1] = biological target: T1, ATP-dependent translocase ABCB1 (Homo sapiens, UniProt P08183); test: Inhibition of P-gp in HEK293/ABCB1 cells assessed as potentiation of doxorubicin-induced cytotoxicity by measuring doxorubicin IC50 at 1 uM incubated for 48 hrs by MTT assay (Rvb = 8.08 uM)
[2] = Inhibition of P-gp in HEK293/ABCB1 cells assessed as potentiation of cisplatin-induced cytotoxicity by measuring cisplatin IC50 at 2 uM incubated for 48 hrs by MTT assay (Rvb = 8.08 uM)
[3] = biological target: T1, ATP-dependent translocase ABCB1; test: Inhibition of P-gp in human NCI-H460/R cells assessed as potentiation of doxorubicin-induced cytotoxicity by measuring reduction in doxorubicin IC50 at 0.1 to 2.5 uM incubated for 72 hrs by MTT assay
[4] = biological target: T1, ATP-dependent translocase ABCB1; test: Inhibition of P-gp in human Caco2 cells assessed as potentiation of doxorubicin-induced cytotoxicity by measuring reduction in doxorubicin IC50 at 2.2 uM incubated for 24 hrs by MTT assay

T1 sequence (P08183 whole entry): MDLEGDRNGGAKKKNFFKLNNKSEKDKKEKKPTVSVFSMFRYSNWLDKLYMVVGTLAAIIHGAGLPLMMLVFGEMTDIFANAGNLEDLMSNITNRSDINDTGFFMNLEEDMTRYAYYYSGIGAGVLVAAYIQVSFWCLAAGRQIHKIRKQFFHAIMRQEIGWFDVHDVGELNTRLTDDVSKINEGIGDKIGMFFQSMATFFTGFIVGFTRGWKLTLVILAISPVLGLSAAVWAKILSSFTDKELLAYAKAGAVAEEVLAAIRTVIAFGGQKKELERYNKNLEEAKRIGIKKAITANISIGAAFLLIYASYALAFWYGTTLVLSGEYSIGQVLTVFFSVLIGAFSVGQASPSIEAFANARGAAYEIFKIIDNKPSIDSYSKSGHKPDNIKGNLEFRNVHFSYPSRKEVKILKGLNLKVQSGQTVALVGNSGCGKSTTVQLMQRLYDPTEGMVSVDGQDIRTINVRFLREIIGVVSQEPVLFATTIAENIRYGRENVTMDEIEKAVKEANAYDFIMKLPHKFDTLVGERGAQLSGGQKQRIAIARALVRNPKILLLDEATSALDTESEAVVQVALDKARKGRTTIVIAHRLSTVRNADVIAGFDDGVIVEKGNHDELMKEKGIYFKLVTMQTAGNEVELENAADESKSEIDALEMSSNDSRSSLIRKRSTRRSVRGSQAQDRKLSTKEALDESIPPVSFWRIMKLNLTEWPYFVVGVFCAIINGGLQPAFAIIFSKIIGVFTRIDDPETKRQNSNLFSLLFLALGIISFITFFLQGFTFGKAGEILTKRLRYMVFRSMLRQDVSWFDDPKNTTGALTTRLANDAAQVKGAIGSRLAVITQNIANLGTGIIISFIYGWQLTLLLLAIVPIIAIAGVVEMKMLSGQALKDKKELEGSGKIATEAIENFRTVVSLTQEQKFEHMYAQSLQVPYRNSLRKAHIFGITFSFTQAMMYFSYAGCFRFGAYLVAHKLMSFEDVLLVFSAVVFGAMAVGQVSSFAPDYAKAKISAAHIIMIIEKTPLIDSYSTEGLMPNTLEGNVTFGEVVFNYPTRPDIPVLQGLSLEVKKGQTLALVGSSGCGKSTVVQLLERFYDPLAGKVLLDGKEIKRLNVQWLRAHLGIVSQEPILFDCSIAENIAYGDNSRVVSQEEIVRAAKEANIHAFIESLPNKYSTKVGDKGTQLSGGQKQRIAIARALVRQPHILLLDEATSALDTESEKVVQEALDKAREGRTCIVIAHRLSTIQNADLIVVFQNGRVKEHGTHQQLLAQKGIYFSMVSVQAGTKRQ

SMILES: CCOc1cc(O)cc2c1C[C@@H](OC(=O)c1cc(OCC)c(OCC)c(OCC)c1)[C@@H](c1cc(O)c(OCC)c(OCC)c1)O2
- IC50 [1]: 620 nM
- IC50 [2]: 920 nM

SMILES: CC(C)[C@H](NC(=O)[C@H](CO)NC(=O)[C@@H](N)Cc1ccc(O)cc1)C(=O)O (H-Tyr-Ser-Val-OH)
- IC50 [3]: 700 nM

SMILES: CC1(C)O[C@H]2CC(=O)OC[C@]23[C@H]2CC[C@@]4(C)[C@H](c5ccoc5)OC(=O)[C@H]5O[C@]54[C@]2(C)C(=O)C[C@@H]13 [Limonin]
- IC50 [4]: 19100 nM
